Literature values as cited in patent publication US7202251B2, “Bicyclic anilide spirohydantoin CGRP receptor antagonists” (Merck & Co., Inc., priority 2003, dated 2007).
Ends that are not written are not given here.

Assays:
[1] = tested on: facial blood flow; conditions: marmoset, electrical stimulation of the trigeminal ganglion
[2] = tested on: middle meningeal artery diameter; conditions: rats, electrical stimulation of the dura mater, prior administration
[3] = tested on: facial blood flow; conditions: rat, trigeminal ganglion stimulation

Compound	effect on increase in facial blood flow [1]	effect on increase of middle meningeal artery diameter [2]	effect on increased facial blood flow [3]
NCCCC[C@H](NC(=O)[C@@H](Cc1cc(Br)c(O)c(Br)c1)NC(=O)N1CCC(N2Cc3ccccc3NC2=O)CC1)C(=O)N1CCN(c2ccncc2)CC1 [BIBN4096BS]	blocked		
CGRP(8-37): a peptide CGRP antagonist (VTHRLAGLLSRSGGVVKNNFVPTNVGSKAF; ends and bridges not checked; UniProt P06881 90-119, looked up, fragment)		blocked	inhibited
